± gives the expanded uncertainty stated by the source.
Details: Liquid, Ebulliometric method (Recirculating still)

| vapor or sublimation pressure (288.15 K) | vapor or sublimation pressure (303.15 K) | vapor or sublimation pressure (318.15 K) | vapor or sublimation pressure (333.15 K) | vapor or sublimation pressure (348.15 K) | vapor or sublimation pressure (363.15 K) | SMILES |
| --- | --- | --- | --- | --- | --- | --- |
| 335 ± 14 kPa | 529 ± 14 kPa | 804 ± 14 kPa | 1176 ± 15 kPa | 1664 ± 16 kPa | 2294 ± 17 kPa | FC(C(F)(F)F)C(F)(F)F [1,1,1,2,3,3,3-heptafluoropropane] |
| 223 ± 14 kPa | 352 ± 14 kPa | 536 ± 14 kPa | 785 ± 14 kPa | 1107 ± 15 kPa | 1515 ± 15 kPa | C=C(C)C [2-methylpropene] |

Reference: the NIST ThermoML archive (doi:10.1021/je800591u)
